# Reference: patent publication US20240246941A1, “SUBSTITUTED 4-(3-AMINOPROP-1-YL)AMINOQUINOLINE ANALOGS AS MODULATORS OF MELANOMA-ASSOCIATED ANTIGEN 11 UBIQUITIN LIGASE” (ST. JUDE CHILDREN'S RESEARCH HOSPITAL, INC., priority 2020, published 2024)
# Target: MAGE-A11:PCF11 (Homo sapiens (Human), UniProt P43364)
# Test: TR-FRET single point screening at 15 μM
# Assay type: binding
# Parameters: unit not given here
# Details: single point TR-FRET screening at 15 μM against MAGE-A11:PCF11
# In short: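 Single-point screen at 15 μM (0.25% DMSO) measuring disruption of GST-MAGEA11 (5 nM) binding to FAM-PCF11_4 peptide (200 nM) detected by Tb-anti-GST (5 nM). Buffer 50 mM Tris pH 7.5, 20 mM MgCl2, 0.1 mg/ml BSA, 1 mM DTT; 90 min at ~25 °C; 520/490 nm ratio converted to % inhibition versus controls.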
# MAGE-A11:PCF11, sequence (P43364 218-429): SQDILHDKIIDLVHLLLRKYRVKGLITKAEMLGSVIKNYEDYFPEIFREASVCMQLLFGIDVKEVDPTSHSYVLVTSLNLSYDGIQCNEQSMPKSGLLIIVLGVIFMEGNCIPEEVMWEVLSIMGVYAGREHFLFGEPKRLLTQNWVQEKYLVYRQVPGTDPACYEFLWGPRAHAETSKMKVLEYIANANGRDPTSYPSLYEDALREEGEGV
row,Compound,TR-FRET signal
1,CCOC(=O)c1cnc2c(C(F)(F)F)cccc2c1NCCN1CCOCC1 [SJ000281260],0.8341
2,CCc1nc2ccccc2c(NC(=O)CN2CCCCC2)c1C [SJ000111682],1.593
3,CCOC(=O)c1cnc2c(C)cc(Cl)cc2c1NCCN(C)C [SJ000027210],3.834
4,Clc1ccc2c(NC3CCN(CCCc4ccccc4)CC3)ccnc2c1 [SJ000523104],20.65
5,CCc1ccc(S(=O)(=O)c2cnc3ccccc3c2N2CCN(c3ccccc3)CC2)cc1 [SJ000117053],−21.21
6,COc1cc2ncc(S(=O)(=O)c3ccc(C)cc3)c(N3CCN(C)CC3)c2cc1OC [SJ000083951],1.313
7,COc1cc2ncc(S(=O)(=O)c3ccc(Cl)cc3)c(N3CCN(C)CC3)c2cc1OC [SJ000083953],4.674
8,Clc1ccc2c(NCCCCN(Cc3ccccc3)Cc3ccc4c(c3)OCO4)ccnc2c1 [SJ000522723],16.51
9,Clc1ccc2c(NCCCCN(Cc3ccccc3)Cc3cccc4c3OCO4)ccnc2c1 [SJ000520436],21.65
10,O=C(CN1CCN(C(c2ccccc2)c2ccccc2)CC1)Nc1c2c(nc3ccccc13)CCC2 [SJ000111684],11.85
11,COC(=O)CN1CCN(c2cc(C)nc3ccccc23)C(C)C1=O (centres unmarked) [SJ000516812],3.503
12,Clc1ccc2c(NC3CCN(Cc4ccc5ccccc5c4)CC3)ccnc2c1 [SJ000523100],4.171
13,COc1ccc(N2CCN(c3c(S(=O)(=O)c4ccccc4)cnc4ccc(F)cc34)CC2)cc1 [SJ000083982],−32.85
14,Oc1ccccc1CN(CCCCNc1ccnc2cc(Cl)ccc12)Cc1ccccc1 [SJ000312697],24.83
15,Cc1ccc(F)cc1CN(CCCCNc1ccnc2cc(Cl)ccc12)Cc1ccccc1 [SJ000520449],42.32
16,Fc1cccc(C(F)(F)F)c1CN(CCCCNc1ccnc2cc(Cl)ccc12)Cc1ccccc1 [SJ000520465],28.75
17,CCc1nc2ccccc2c(NC(=O)CNC(C)(C)CC(C)(C)C)c1C [SJ000049110],−0.6045
18,Cc1ccc(S(=O)(=O)c2cnc3ccccc3c2N2CCN(c3cc(C)ccc3C)CC2)cc1 [SJ000117084],2.443
19,COC(=O)CCCCCN(CCCCNc1ccnc2cc(Cl)ccc12)Cc1ccccc1 [SJ000520432],23.58

row,Compound,TR-FRET signal
1,CCOC(=O)c1cnc2ccc(C(=O)O)cc2c1N1CCN(CCO)CC1 [SJ000280902],−0.5958
2,CN(C)c1ccc(CN2CCC(Nc3ccnc4cc(Cl)ccc34)CC2)cc1 [SJ000523102],13.09
3,CN(C)c1cc(NC(=O)CNC(C)(C)CC(C)(C)C)c2ccccc2n1 [SJ000111678],10.62
4,CCCCCN1CCC(Nc2ccnc3cc(Cl)ccc23)CC1 [SJ000523088],12.17
5,COc1ccc(CN(CCCCNc2ccnc3cc(Cl)ccc23)Cc2ccccc2)cc1OC [SJ000522728],0.05797
6,CCOC(=O)c1cnc2c(Cl)cccc2c1NCCN1CCOCC1 [SJ000163436],−6.529
7,CCCN(CCCNc1c2ccc(Cl)cc2nc2ccc(OC)cc12)Cc1ccsc1 [SJ000520922],−258
8,CCOc1ccc2ncc(C(=O)c3ccccc3)c(N3CCN(CC)CC3)c2c1 [SJ000247283],−0.2733
9,CCCN(CCCNc1c2ccc(Cl)cc2nc2ccc(OC)cc12)Cc1cccc(OC)c1 [SJ000520961],−244.6
10,Cc1ccc(CN(CCCCNc2ccnc3cc(Cl)ccc23)Cc2ccccc2)o1 [SJ000312682],2.013
11,CCOC(=O)c1cnc2ccc(Cl)cc2c1N1CCN(C)CC1 [SJ000187322],−0.9277
12,Clc1ccc2c(NCCCCN(Cc3ccccc3)Cc3ccncc3)ccnc2c1 [SJ000361190],−9.945
13,FC(F)(F)c1cccc(CN(CCCCNc2ccnc3cc(Cl)ccc23)Cc2ccccc2)c1 [SJ000520455],26.38
14,CCOc1ccc2ncc(S(=O)(=O)c3ccc(C)cc3)c(N3CCN(c4ccccc4F)CC3)c2c1 [SJ000117077],5.159
15,COc1ccc2nc3cc(Cl)ccc3c(NCCCNCc3ccccc3C(F)(F)F)c2c1 [SJ000361095],−169.5
16,CCN1CCN(c2c(S(=O)(=O)c3ccc(Cl)cc3)cnc3ccc(C)cc23)CC1 [SJ000083967],−3.098
17,COc1ccc2nc3cc(Cl)ccc3c(NCCCNCc3ccco3)c2c1 [SJ000523032],−165.3
18,Cc1ccc(S(=O)(=O)c2cnc3ccc(C)cc3c2N2CCN(c3ccc(F)cc3)CC2)cc1 [SJ000117058],−4.068
19,Cc1ccc(S(=O)(=O)c2cnc3ccc(F)cc3c2N2CCN(c3ccc(F)cc3)CC2)cc1 [SJ000117061],−70.5

# Same assay, conditions: single point TR-FRET screening of quinoline compounds against MAGE-A11:PCF11; 15 μM
row,Compound,TR-FRET signal
1,CCCN(CCCNc1ccnc2cc(C(F)(F)F)ccc12)Cc1ccc2ccccc2c1 [SJ000523075],11.39
2,CCOC(=O)c1cnc2c(C)cc(C)cc2c1NCCCN(C)C [SJ000037397],14.93
3,COc1ccc2nc3cc(Cl)ccc3c(NCCCNCc3ccc(N(C)C)c4ccccc34)c2c1 [SJ000523028],−1.532
4,CCCN(CCCNc1ccnc2cc(C(F)(F)F)ccc12)Cc1cc(C)ccc1C [SJ000523082],21.74
5,FC(F)(F)c1cc(-c2ccc3c(NCCCNCc4ccco4)ccnc3c2)cc(C(F)(F)F)c1 [SJ000311270],59.71
6,Clc1ccc2c(NCCCN(Cc3ccccc3)Cc3ccccc3)ccnc2c1 [SJ000361166],14.76
7,COc1ccc(CN(CCCNc2ccnc3cc(Cl)ccc23)Cc2ccccc2)cc1F [SJ000520437],23.65
8,CCCN(CCCNc1ccnc2cc(C(F)(F)F)ccc12)Cc1ccc(OC)cc1 [SJ000361273],22.9
9,Clc1ccc2c(NCCCNCC3CCCCC3)ccnc2c1 [SJ000361102],15.63
10,CCCN(CCCNc1ccnc2cc(Cl)ccc12)CCC(C)(C)C [SJ000357570],12.11
11,CCCN(CCCNc1ccnc2cc(C(F)(F)F)ccc12)Cc1cccs1 [SJ000361253],19.53
12,Fc1ccc(Cc2ccc3c(NCCCNCc4ccco4)ccnc3c2)c(Cl)c1 [SJ000311322],24.77
13,CCCN(CCCNc1c2ccc(Cl)cc2nc2ccc(OC)cc12)Cc1ccc(Cl)c([N+](=O)[O-])c1 [SJ000522738],−71.03
14,Clc1cccc(-c2ccc(CNCCCNc3ccnc4cc(Cl)ccc34)o2)c1 [SJ000523069],33.51
15,CCOC(=O)c1cnc2c(Cl)cc(Cl)cc2c1NCCCN1CCOCC1 [SJ000176476],−2.118
16,CC(CCNCCCNc1ccnc2cc(Cl)ccc12)c1ccccc1 (centres unmarked) [SJ000523053],19.01
17,COc1ccc(F)c(CN(CCCNc2ccnc3cc(Cl)ccc23)Cc2ccccc2)c1 [SJ000520445],4.762
18,CCOC(=O)c1ccc2ncc(C(=O)OCC)c(NCCCN3CCOCC3)c2c1 [SJ000176583],11.26
19,CC(C)CCc1ccc2c(NCCCNCc3ccco3)ccnc2c1 [SJ000311246],13.01
20,Cn1ccnc1CNCCCNc1ccnc2cc(C(F)(F)F)ccc12 [SJ000521068],10.19

row,Compound,TR-FRET signal
1,CCCN(CCCNc1ccnc2cc(Cl)ccc12)CCC(C)c1ccccc1 (centres unmarked) [SJ000357573],24.98
2,CCCN(CCCNc1ccnc2cc(Cl)ccc12)Cc1c(F)cccc1OC [SJ000357499],19.4
3,CCCN(CCCNc1ccnc2cc(C(F)(F)F)ccc12)Cc1ccc2c(c1)OCO2 [SJ000361270],5.623
4,CCCN(CCCNc1c2ccc(Cl)cc2nc2ccc(OC)cc12)Cc1ccccc1OC(F)(F)F [SJ000522961],22.69
5,Cc1ccc(CNCCCNc2ccnc3cc(Cl)ccc23)s1 [SJ000311190],10.83
6,CCCN(CCCNc1ccnc2cc(C(F)(F)F)ccc12)Cc1cc(C(F)(F)F)ccc1OC [SJ000520486],8.188
7,CCCN(CCCNc1ccnc2cc(C(F)(F)F)ccc12)Cc1cccnc1Br [SJ000575180],5.164
8,CCCN(CCCNc1ccnc2cc(Cl)ccc12)Cc1ccc[nH]1 [SJ000357445],10.34
9,COC(=O)CCCCCN(CCCNc1ccnc2cc(Cl)ccc12)Cc1ccccc1 [SJ000520429],17.14
10,CCCCNCCCNc1ccnc2cc(C(F)(F)F)ccc12 [SJ000521055],18.54
11,CCCN(CCCNc1ccnc2cc(C(F)(F)F)ccc12)Cc1cc2ccccc2o1 [SJ000520479],−20.41
12,Clc1ccc2c(NCCCN(Cc3ccccc3)Cc3c[nH]c4ccccc34)ccnc2c1 [SJ000520433],40.19
13,COc1cccc(Oc2ccc3c(NCCCNCc4ccco4)ccnc3c2)c1 [SJ000311214],29.11
14,Cc1ccc(C)c(CN(CCCNc2ccnc3cc(Cl)ccc23)Cc2ccccc2)c1 [SJ000361187],20.22
15,Cn1cc(CNCCCNc2ccnc3cc(C(F)(F)F)ccc23)c2ccccc21 [SJ000521043],29.11
16,CCCN(CCCNc1ccnc2cc(Cl)ccc12)Cc1ccc(F)cc1 [SJ000522759],20.79
17,CCOC(=O)c1cnc2ccc(Br)cc2c1NCCCN1CCOCC1 [SJ000176507],−22
18,CCCN(CCCNc1ccnc2cc(C(F)(F)F)ccc12)Cc1ccc(N(C)C)cc1 [SJ000523077],23.71
19,CCCN(CCCNc1ccnc2cc(Cl)ccc12)Cc1c(C)cc(C)cc1C [SJ000522749],35.43
